Source: ChEMBL document CHEMBL2331449, “Synthesis, biological evaluation and molecular modeling of aloe-emodin derivatives as new acetylcholinesterase inhibitors” (Bioorg Med Chem, 2013)

Legend:
Acetylcholinesterase [1] = target: T1, Acetylcholinesterase (Rattus norvegicus, UniProt P37136)
T1 sequence (P37136 whole entry): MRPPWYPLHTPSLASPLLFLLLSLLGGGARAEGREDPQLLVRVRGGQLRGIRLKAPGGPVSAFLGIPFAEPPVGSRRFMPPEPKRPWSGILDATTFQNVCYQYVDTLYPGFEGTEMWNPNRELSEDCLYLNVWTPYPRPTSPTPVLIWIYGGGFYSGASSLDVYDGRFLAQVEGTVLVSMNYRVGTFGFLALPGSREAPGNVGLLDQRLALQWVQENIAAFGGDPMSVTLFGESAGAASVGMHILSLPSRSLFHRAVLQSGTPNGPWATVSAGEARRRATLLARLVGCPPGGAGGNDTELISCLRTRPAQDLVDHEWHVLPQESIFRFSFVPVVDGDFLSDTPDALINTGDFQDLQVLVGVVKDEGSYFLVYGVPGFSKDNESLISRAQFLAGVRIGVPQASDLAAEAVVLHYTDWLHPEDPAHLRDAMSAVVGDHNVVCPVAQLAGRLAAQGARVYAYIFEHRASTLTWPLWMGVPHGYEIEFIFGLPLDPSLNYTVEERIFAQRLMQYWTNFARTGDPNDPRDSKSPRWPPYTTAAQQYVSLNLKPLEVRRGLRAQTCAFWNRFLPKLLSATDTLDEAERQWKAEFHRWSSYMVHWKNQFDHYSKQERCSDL
Description: Inhibition of AChE in rat cortex using acetylthiocholine iodide as substrate preincubated with enzyme for 10 mins prior to substrate addition by Ellman's colorimetric method

Acetylcholinesterase [2] = target: T1, Acetylcholinesterase; test: Inhibition of AChE in rat cortex using acetylthiocholine iodide as substrate by double Lineweaver-Burk plot analysis

SMILES | IC50 (Acetylcholinesterase [1]) | Ki (Acetylcholinesterase [2])
C[N+](C)(C)Cc1cc(O)c2c(c1)C(=O)c1cccc(O)c1C2=O | 3760 nM | 
COc1cccc2c1C(=O)c1c(OC)cc(C[N+](C)(C)c3ccccc3)cc1C2=O | 13600 nM | 
COc1cccc2c1C(=O)c1c(OC)cc(C[N+](C)(C)C)cc1C2=O | 540 nM | 
C[N+](C)(Cc1cc(O)c2c(c1)C(=O)c1cccc(O)c1C2=O)c1ccccc1 | 25400 nM | 
O=C1c2cccc(O)c2C(=O)c2c(O)cc(C[n+]3ccccc3)cc21 | 90 nM | 279 nM
